For twelve molecules, T/C results are on record in PubChem BioAssay AID192 (DTP/NCI, 2004).

SMILES strings stand for the structures. Values joined by “and” are separate entries in the source; they are usually repeats but may differ in a detail not shown here. Identical values can stand only once. Inconclusive results and toxic doses are left out. Numbered stars: 1 amine (or outer) side, 2 acyl side, 3 side chain; on linkers, the order of the positions; unused ones are H or OH. Bridge positions count the residues as written; N and C are the ends. Square brackets hold non-standard residues; d marks the D form. Peptide text beside a SMILES is read from it. I, II: the chains in the order shown. Actinocin(1to9) = Cc1c2oc3c(C)ccc(C(=O)[*:2])c3nc-2c(C(=O)[*:1])c(N)c1=O; Hyp = O=C(O)[CH]1C[CH](O)CN1; NMeV = CN[CH](C(=O)O)C(C)C; Sar = CNCC(=O)O

The assay deals with BDF1 mice, B16 melanoma ip, median survival T/C. As to the kind of experiment: NCI In Vivo Anticancer Drug Screen. Data for tumor model B16 Melanoma (intraperitoneal) in B6D2F1 (BDF1) mice. Particulars: endpoint: median survival time, higher = longer survival. The gist of the method:
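The ratio T/C compares compound-treated mice with vehicle-treated controls, using survival or tumor size as the endpoint in a transplantable tumor model.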

Setting [1] is: dose: 10.0 mg/kg/injection, schedule: Q01DX009 (ip), vehicle: saline with Tween-80.
[2] abbreviates: dose: 100.0 mg/kg/injection, schedule: Q01DX009 (ip), vehicle: saline.
Where [3] appears, read: dose: 200.0 mg/kg/injection, schedule: Q01DX009 (ip), vehicle: saline.
Setting [4] is: dose: 100.0 mg/kg/injection, schedule: Q01DX009 (ip), vehicle: Klucel (hydroxypropylcellulose) (HPC).
Setting [5] is: dose: 200.0 mg/kg/injection, schedule: Q01DX009 (ip), vehicle: Klucel (hydroxypropylcellulose) (HPC).
Where [6] appears, read: dose: 400.0 mg/kg/injection, schedule: Q01DX009 (ip), vehicle: Klucel (hydroxypropylcellulose) (HPC).

For the molecule `COc1ccc2cc3[n+](cc2c1OC)CCc1cc2c(cc1-3)OCO2`, the T/C (dose: 1.5 mg/kg/injection, schedule: Q01DX009 (ip), vehicle: carboxymethylcellulose (CMC)) was 105 % of control; the T/C (dose: 2.5 mg/kg/injection, schedule: Q01DX009 (ip), vehicle: Klucel (hydroxypropylcellulose) (HPC)) is 106 % of control; the T/C (dose: 2.5 mg/kg/injection, schedule: Q01DX009 (ip), vehicle: saline with Tween-80) was 100 % of control; the T/C (dose: 2.5 mg/kg/injection, schedule: Q02DX005 (ip), vehicle: Klucel (hydroxypropylcellulose) (HPC)) was 109 % of control; the T/C (dose: 3.0 mg/kg/injection, schedule: Q01DX009 (ip), vehicle: carboxymethylcellulose (CMC)) was 96 % of control; the T/C (dose: 3.12 mg/kg/injection, schedule: Q01DX009 (ip), vehicle: carboxymethylcellulose (CMC)) was 95 % of control. Moreover, the T/C was 108 % of control (dose: 5.0 mg/kg/injection, schedule: Q01DX009 (ip), vehicle: Klucel (hydroxypropylcellulose) (HPC)); 110 % of control (dose: 5.0 mg/kg/injection, schedule: Q01DX009 (ip), vehicle: saline with Tween-80); 110 % of control (dose: 5.0 mg/kg/injection, schedule: Q02DX005 (ip), vehicle: Klucel (hydroxypropylcellulose) (HPC)); 105 % of control (dose: 6.25 mg/kg/injection, schedule: Q01DX009 (ip), vehicle: Klucel (hydroxypropylcellulose) (HPC)); 102 % of control under setting [1]; 100 % of control (dose: 10.0 mg/kg/injection, schedule: Q02DX005 (ip), vehicle: Klucel (hydroxypropylcellulose) (HPC)). Further, under “dose: 12.5 mg/kg/injection, schedule: Q01DX009 (ip), vehicle: Klucel (hydroxypropylcellulose) (HPC)”, the T/C is 106 % of control.
`CC(N)CCc1ccccc1` (centres undefined): the T/C is 100 % of control (dose: 12.5 mg/kg/injection, schedule: Q04DX003 (ip), vehicle: saline); 108 % of control (dose: 25.0 mg/kg/injection, schedule: Q04DX003 (ip), vehicle: saline); 111 % of control (dose: 50.0 mg/kg/injection, schedule: Q04DX003 (ip), vehicle: saline).
For the molecule `Cc1cc(C)c(CCl)cc1CCl`, the T/C under setting [1] was 110 % of control; the T/C (dose: 20.0 mg/kg/injection, schedule: Q01DX009 (ip), vehicle: saline with Tween-80) is 95 % of control; the T/C (dose: 20.0 mg/kg/injection, schedule: Q04DX003 (ip), vehicle: saline with Tween-80) was 100 % of control; the T/C (dose: 40.0 mg/kg/injection, schedule: Q01DX009 (ip), vehicle: saline with Tween-80) was 102 % of control; the T/C (dose: 40.0 mg/kg/injection, schedule: Q04DX003 (ip), vehicle: saline with Tween-80) is 100 % of control.
Regarding `NC(=O)CC(N)C(=O)O` (centres undefined), the T/C was 99 % of control (dose: 50.0 mg/kg/injection, schedule: Q01DX009 (ip), vehicle: other); 96 % of control (dose: 100.0 mg/kg/injection, schedule: Q01DX009 (ip), vehicle: other); 92 % of control under setting [2]; 105 % of control (dose: 200.0 mg/kg/injection, schedule: Q01DX009 (ip), vehicle: other); 87 % of control under setting [3]; 96 % of control (dose: 400.0 mg/kg/injection, schedule: Q01DX009 (ip), vehicle: other). Moreover, the T/C is 87 % of control (dose: 400.0 mg/kg/injection, schedule: Q01DX009 (ip), vehicle: saline); 104 % of control (dose: 800.0 mg/kg/injection, schedule: Q01DX009 (ip), vehicle: other); 103 % of control (dose: 1600.0 mg/kg/injection, schedule: Q01DX009 (ip), vehicle: other).
On to `Cn1c(CCCC(=O)O)nc2cc(N(CCCl)CCCl)ccc21`, for which the T/C runs as follows: (dose: 1.0 mg/kg/injection, schedule: Q01DX009 (ip), vehicle: saline) 115 % of control; (dose: 2.0 mg/kg/injection, schedule: Q01DX009 (ip), vehicle: saline) 94 % of control; (dose: 2.5 mg/kg/injection, schedule: Q01DX009 (ip), vehicle: saline) 157 % of control; (dose: 4.0 mg/kg/injection, schedule: Q01DX009 (ip), vehicle: saline) 103 % of control; (dose: 5.0 mg/kg/injection, schedule: Q01DX009 (ip), vehicle: saline) 152 % of control; (dose: 6.0 mg/kg/injection, schedule: Q01DX009 (ip), vehicle: saline) 101 % of control. The T/C is 159 % of control (dose: 8.0 mg/kg/injection, schedule: Q01DX009 (ip), vehicle: saline); 157 % of control and 186 % of control (dose: 10.0 mg/kg/injection, schedule: Q01DX009 (ip), vehicle: saline); 115 % of control (dose: 12.0 mg/kg/injection, schedule: Q01DX009 (ip), vehicle: saline); 89 % of control (dose: 20.0 mg/kg/injection, schedule: Q01DX009 (ip), vehicle: saline).
In the case of `C[N+](C)(C)c1ncnc2nc[nH]c12`, the T/C (dose: 12.5 mg/kg/injection, schedule: Q01DX009 (ip), vehicle: saline) is 92 % of control; the T/C (dose: 25.0 mg/kg/injection, schedule: Q01DX009 (ip), vehicle: saline) is 89 % of control; the T/C (dose: 50.0 mg/kg/injection, schedule: Q01DX009 (ip), vehicle: saline) was 93 % of control; the T/C under setting [2] was 103 % of control; the T/C under setting [3] is 87 % of control.
As to `Cc1c2oc3c(C)ccc(C(=O)NC4C(=O)NC(C(C)C)C(=O)N5CCCC5C(=O)N(C)CC(=O)N(C)C(C(C)C)C(=O)OC4C)c3nc-2c(C(=O)NC2C(=O)NC(C(C)C)C(=O)N3CC(O)CC3C(=O)N(C)CC(=O)N(C)C(C(C)C)C(=O)OC2C)c(N)c1=O` (centres undefined) (I: TV[Hyp][Sar][NMeV] / II: TVP[Sar][NMeV]; ester I:1-I:C, II:1-II:C; linker I:N-II:N via Actinocin(1to9); configuration not given here), the T/C is 152 % of control (dose: 100.0 micrograms/kg/injection, schedule: Q01DX009 (ip), vehicle: saline + alcohol); 158 % of control (dose: 150.0 micrograms/kg/injection, schedule: Q01DX009 (ip), vehicle: saline + alcohol); 120 % of control (dose: 225.0 micrograms/kg/injection, schedule: Q04DX003 (ip), vehicle: saline + alcohol); 121 % of control (dose: 450.0 micrograms/kg/injection, schedule: Q04DX003 (ip), vehicle: saline + alcohol); 95 % of control (dose: 600.0 micrograms/kg/injection, schedule: Q04DX003 (ip), vehicle: saline + alcohol); 88 % of control (dose: 900.0 micrograms/kg/injection, schedule: Q04DX003 (ip), vehicle: saline + alcohol).
Regarding `C=CCNC(=O)c1ccccc1SC(C)=O`, the T/C reads like this: (dose: 100.0 mg/kg/injection, schedule: Q01DX009 (ip), vehicle: saline + Tween-80 + alcohol) 101 % of control; (dose: 200.0 mg/kg/injection, schedule: Q01DX009 (ip), vehicle: saline + Tween-80 + alcohol) 116 % of control; (dose: 400.0 mg/kg/injection, schedule: Q01DX009 (ip), vehicle: saline + Tween-80 + alcohol) 124 % of control.
Take `Cc1cccc(C)c1NC(=O)c1ccccc1C(=O)O`: the T/C was 97 % of control (dose: 100.0 mg/kg/injection, schedule: Q01DX009 (ip), vehicle: saline with Tween-80); 92 % of control (dose: 200.0 mg/kg/injection, schedule: Q01DX009 (ip), vehicle: saline with Tween-80); 95 % of control (dose: 400.0 mg/kg/injection, schedule: Q01DX009 (ip), vehicle: saline with Tween-80).
In the case of `CC(O)(C(=O)O)c1ccccc1` (centres undefined) (tested in a mixture with another compound), the T/C was 94 % of control under setting [4], 105 % of control under setting [5] and 97 % of control under setting [6].
Take `COc1ccc(NC(=O)Oc2ccccc2-c2ccccc2)cc1`: the T/C reads like this: (dose: 8.0 mg/kg/injection, schedule: Q01DX009 (ip), vehicle: saline with Tween-80) 100 % of control; (dose: 12.0 mg/kg/injection, schedule: Q01DX009 (ip), vehicle: saline with Tween-80) 95 % of control; (dose: 12.5 mg/kg/injection, schedule: Q01DX009 (ip), vehicle: saline with Tween-80) 223 % of control; (dose: 18.0 mg/kg/injection, schedule: Q01DX009 (ip), vehicle: saline with Tween-80) 95 % of control; (dose: 25.0 mg/kg/injection, schedule: Q01DX009 (ip), vehicle: saline with Tween-80) 199 % of control; (dose: 50.0 mg/kg/injection, schedule: Q01DX009 (ip), vehicle: saline with Tween-80) 213 % of control.
Turning to `CCOC(CNC(=O)OCc1ccccc1)OCC`, the T/C under setting [4] was 93 % of control, the T/C under setting [5] was 93 % of control and the T/C under setting [6] was 90 % of control.
